Patent US20240400564A1 (Syndax Pharmaceuticals, Inc, priority 2021, published 2024)

Target: hERG (Homo sapiens, UniProt Q12809)
Experiment: Patch clamp assay (hERG tail currents, whole-cell)

hERG, sequence (Q12809 whole entry): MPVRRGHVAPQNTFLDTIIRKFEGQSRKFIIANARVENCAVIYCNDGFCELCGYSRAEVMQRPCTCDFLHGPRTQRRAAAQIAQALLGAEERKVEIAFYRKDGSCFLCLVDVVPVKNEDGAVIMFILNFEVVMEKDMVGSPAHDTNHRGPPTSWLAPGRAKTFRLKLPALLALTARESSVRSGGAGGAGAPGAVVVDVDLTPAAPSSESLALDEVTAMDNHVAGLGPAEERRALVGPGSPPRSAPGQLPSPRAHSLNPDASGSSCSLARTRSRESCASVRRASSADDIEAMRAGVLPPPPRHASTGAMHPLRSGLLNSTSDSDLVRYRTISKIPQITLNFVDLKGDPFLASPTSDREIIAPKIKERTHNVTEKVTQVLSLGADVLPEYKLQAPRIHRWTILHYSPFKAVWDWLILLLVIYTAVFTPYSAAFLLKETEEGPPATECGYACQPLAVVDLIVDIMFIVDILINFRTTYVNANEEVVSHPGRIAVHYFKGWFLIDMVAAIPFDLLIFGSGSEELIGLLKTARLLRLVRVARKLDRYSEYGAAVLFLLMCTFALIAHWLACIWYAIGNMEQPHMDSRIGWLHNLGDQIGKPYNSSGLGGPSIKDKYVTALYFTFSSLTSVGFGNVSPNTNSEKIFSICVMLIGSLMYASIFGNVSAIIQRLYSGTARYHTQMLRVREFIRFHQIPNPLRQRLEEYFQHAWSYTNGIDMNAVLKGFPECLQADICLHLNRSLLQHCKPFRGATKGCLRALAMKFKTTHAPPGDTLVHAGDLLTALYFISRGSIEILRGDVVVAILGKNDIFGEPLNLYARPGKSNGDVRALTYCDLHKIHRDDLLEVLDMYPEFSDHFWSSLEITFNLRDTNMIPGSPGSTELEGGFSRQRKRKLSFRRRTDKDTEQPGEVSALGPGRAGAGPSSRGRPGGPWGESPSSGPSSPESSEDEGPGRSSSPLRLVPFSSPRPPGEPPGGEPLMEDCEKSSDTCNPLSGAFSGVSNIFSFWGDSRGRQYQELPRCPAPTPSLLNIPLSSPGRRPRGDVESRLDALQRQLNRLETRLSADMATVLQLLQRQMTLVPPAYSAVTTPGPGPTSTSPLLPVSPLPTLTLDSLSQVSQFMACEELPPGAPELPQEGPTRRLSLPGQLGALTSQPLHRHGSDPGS

SMILES	hERG % Remaining (10 μM compound)	hERG % Remaining (30 μM compound)
CCN(CC)S(=O)(=O)N[C@@H]1CC[C@@H](CN2CCC3(CC2)CN(c2ncncc2Oc2ccc(F)cc2C(=O)N(C(C)C)C2CC(F)(F)C2)C3)OC1 [Example 114, 2-((4-(7-(((2S,5R)-5-((N,N-Diethylsulfamoyl)amino)tetrahydro-2H-pyran-2-yl)methyl)-2,7-diazaspiro[3.5]nonan-2-yl)pyrimidin-5-yl)oxy)-N-(3,3-difluorocyclobutyl)-5-fluoro-N-isopropylbenzamide]	+ (<33%)	+ (<33%)
CC(C)N(C(=O)c1cc(F)ccc1Oc1cncnc1N1CC2(CCN(C[C@@H]3CC[C@@H](NS(=O)(=O)N4CCC4)CO3)CC2)C1)C1CC(F)(F)C1 [Example 118, 2-((4-(7-(((2S,5R)-5-(Azetidine-1-sulfonamido)tetrahydro-2H-pyran-2-yl)methyl)-2,7-diazaspiro[3.5]nonan-2-yl)pyrimidin-5-yl)oxy)-N-(3,3-difluorocyclobutyl)-5-fluoro-N-isopropylbenzamide]	++ (233% and ≤66%)	+ (<33%)
CC(C)N(C(=O)c1cc(F)ccc1Oc1cncnc1N1CC2(CCN(C[C@@H]3CC[C@@H](NS(=O)(=O)N(C)C(C)C)CO3)CC2)C1)C1CC(F)(F)C1 [Example 119, N-(3,3-Difluorocyclobutyl)-5-fluoro-N-isopropyl-2-((4-(7-(((2S,5R)-5-((N-isopropyl-N-methylsulfamoyl)amino)tetrahydro-2H-pyran-2-yl)methyl)-2,7-diazaspiro[3.5]nonan-2-yl)pyrimidin-5-yl)oxy)benzamide]	–	+ (<33%)
C[C@@H]1COC[C@@H](C)N1C(=O)c1cc(F)ccc1Oc1cncnc1N1CC2(CCN(C[C@@H]3CC[C@@H](NS(=O)(=O)c4ccccc4)CO3)CC2)C1 [Example 120, N-((3R,6S)-6-((2-(5-(2-((3R,5R)-3,5-Dimethylmorpholine-4-carbonyl)-4-fluorophenoxy)pyrimidin-4-yl)-2,7-diazaspiro[3.5]nonan-7-yl)methyl)tetrahydro-2H-pyran-3-yl)benzenesulfonamide]	+++ (≥66%)	++ (233% and ≤66%)
C[C@@H]1COC[C@@H](C)N1C(=O)c1cc(F)ccc1Oc1cncnc1N1CC2(CCN(C[C@@H]3CC[C@@H](NS(=O)(=O)N4CCC4)CO3)CC2)C1 [Example 121, N-((3R,6S)-6-((2-(5-(2-((3R,5R)-3,5-Dimethylmorpholine-4-carbonyl)-4-fluorophenoxy)pyrimidin-4-yl)-2,7-diazaspiro[3.5]nonan-7-yl)methyl)tetrahydro-2H-pyran-3-yl)azetidine-1-sulfonamide]	–	+++ (≥66%)
Cc1nc(S(=O)(=O)N[C@@H]2CC[C@@H](CN3CCC4(CC3)CN(c3ncncc3Oc3ccc(F)cc3C(=O)N3[C@H](C)COC[C@H]3C)C4)OC2)cs1 [Example 122, N-((3R,6S)-6-((2-(5-(2-((3R,5R)-3,5-Dimethylmorpholine-4-carbonyl)-4-fluorophenoxy)pyrimidin-4-yl)-2,7-diazaspiro[3.5]nonan-7-yl)methyl)tetrahydro-2H-pyran-3-yl)-2-methylthiazole-4-sulfonamide]	–	+++ (≥66%)
C[C@@H]1COC[C@@H](C)N1C(=O)c1cc(F)ccc1Oc1cncnc1N1CC2(CCN(C[C@@H]3CC[C@@H](NS(=O)(=O)N(C)C)CO3)CC2)C1 [Example 123, {[(3R,6S)-6-{[2-(5-{2-[(3R,5R)-3,5-Dimethylmorpholine-4-carbonyl]-4-fluorophenoxy}pyrimidin-4-yl)-2,7-diazaspiro[3.5]nonan-7-yl]methyl}oxan-3-yl]sulfamoyl}dimethylamine]	–	+++ (≥66%)
CCNS(=O)(=O)N[C@@H]1CC[C@@H](CN2CCC3(CC2)CN(c2ncncc2Oc2ccc(F)cc2C(=O)N2[C@H](C)COC[C@H]2C)C3)OC1 [Example 125, {[(3R,6S)-6-{[2-(5-{2-[(3R,5R)-3,5-Dimethylmorpholine-4-carbonyl]-4-fluorophenoxy}pyrimidin-4-yl)-2,7-diazaspiro[3.5]nonan-7-yl]methyl}oxan-3-yl]sulfamoyl}(ethyl)amine]	–	+++ (≥66%)
C[C@@H]1COC[C@H](C)N1C(=O)c1cc(F)ccc1Oc1cncnc1N1CC2(CCN(C[C@@H]3CC[C@@H](NS(=O)(=O)c4ccccc4)CO3)CC2)C1 [Example 130, N-((3R,6S)-6-((2-(5-(2-((3S,5R)-3,5-Dimethylmorpholine-4-carbonyl)-4-fluorophenoxy)pyrimidin-4-yl)-2,7-diazaspiro[3.5]nonan-7-yl)methyl)tetrahydro-2H-pyran-3-yl)benzenesulfonamide]	+++ (≥66%)	++ (233% and ≤66%)
CC(C)N(C(=O)c1cc(F)ccc1Oc1cncnc1N1CC2(CCN(C[C@@H]3CC[C@@H](NS(=O)(=O)N4CCC4)CO3)CC2)C1)[C@H]1CCOC1 [Example 134, 2-((4-(7-(((2S,5R)-5-(Azetidine-1-sulfonamido)tetrahydro-2H-pyran-2-yl)methyl)-2,7-diazaspiro[3.5]nonan-2-yl)pyrimidin-5-yl)oxy)-5-fluoro-N-isopropyl-N-((S)-tetrahydrofuran-3-yl)benzamide]	–	+++ (≥66%)
CC(C)N(CCC#N)C(=O)c1cc(F)ccc1Oc1cncnc1N1CC2(CCN(C[C@@H]3CC[C@@H](NS(=O)(=O)c4ccccc4)CO3)CC2)C1 [Example 136, N-(2-Cyanoethyl)-5-fluoro-N-isopropyl-2-((4-(7-(((2S,5R)-5-(phenylsulfonamido)tetrahydro-2H-pyran-2-yl)methyl)-2,7-diazaspiro[3.5]nonan-2-yl)pyrimidin-5-yl)oxy)benzamide]	+++ (≥66%)	+ (<33%)
CC(C)N(C)C(=O)c1cc(F)ccc1Oc1cncnc1N1CC2(CCN(C[C@@H]3CC[C@@H](NS(=O)(=O)N4CCC4)CO3)CC2)C1 [Example 138, 2-((4-(7-(((2S,5R)-5-(Azetidine-1-sulfonamido)tetrahydro-2H-pyran-2-yl)methyl)-2,7-diazaspiro[3.5]nonan-2-yl)pyrimidin-5-yl)oxy)-5-fluoro-N-isopropyl-N-methylbenzamide]	–	+++ (≥66%)
CCNS(=O)(=O)N[C@@H]1CC[C@@H](CN2CCC3(CC2)CN(c2ncncc2Oc2ccc(F)cc2C(=O)N(CC)C(C)C)C3)OC1 [Example 141, N-Ethyl-2-((4-(7-(((2S,5R)-5-((N-ethylsulfamoyl)amino)tetrahydro-2H-pyran-2-yl)methyl)-2,7-diazaspiro[3.5]nonan-2-yl)pyrimidin-5-yl)oxy)-5-fluoro-N-isopropylbenzamide]	–	+++ (≥66%)
CCN(C(=O)c1cc(F)ccc1Oc1cncnc1N1CC2(CCN(C[C@@H]3CC[C@@H](NS(=O)(=O)NC4CC4)CO3)CC2)C1)C(C)C [Example 142, 2-((4-(7-(((2S,5R)-5-((N-Cyclopropylsulfamoyl)amino)tetrahydro-2H-pyran-2-yl)methyl)-2,7-diazaspiro[3.5]nonan-2-yl)pyrimidin-5-yl)oxy)-N-ethyl-5-fluoro-N-isopropylbenzamide]	–	++ (233% and ≤66%)
